Literature values, collected in publication PMC4962924 (Chemistry (Weinheim an der Bergstrasse, Germany), 2016).

Tested on: Hsp90
Conditions: natural product C-terminal inhibitors; ref [25],[26]

| SMILES | IC50 [µM] |
| --- | --- |
| CO[C@H]1[C@H](OC(=O)c2ccc(C)[nH]2)[C@H](O)[C@@H](Oc2ccc3c(O)c(NC(=O)c4c[nH]c(C(=O)Nc5c(O)c6ccc(O[C@H]7OC(C)(C)[C@@H](OC)[C@H](OC(=O)c8ccc(C)[nH]8)[C@@H]7O)c(C)c6oc5=O)c4C)c(=O)oc3c2C)OC1(C)C [coumermycin A1] | 70 |
